Source: paper PMC10714424, “Discovery of a Potent Dual Inhibitor of Aromatase and Aldosterone Synthase” (ACS Pharmacology & Translational Science, 2023)
Where two headings read alike, the source gives them in different places.

Columns and labels:
[1] = test system: CYP11B2 (Aldosterone Synthase); conditions: cited from earlier work
[2] = biological target: CYP11B1 (11β-Hydroxylase); conditions: cited from earlier work
MCF-7 cells = test: Cell proliferation assay (trypan blue cell count); format: cell-based, human; conditions: read-out: antiproliferative IC50
Procedure: MCF-7 and MDA-MB-231 cells were plated in 24-well plates and allowed to attach overnight. […] At the end of the treatment, viable cells (evaluated by trypan blue dye exclusion) were counted with a hemocytometer.

CYP19A1 (Aromatase) = biological target: T1, CYP19A1 (Aromatase) (Homo sapiens, UniProt P11511); test: Aromatase (CYP19A1) Inhibitor Screening Kit, recombinant enzyme; format: biochemical
T1 construct: purchased BioVision K984-100
T1 sequence (P11511 1-503): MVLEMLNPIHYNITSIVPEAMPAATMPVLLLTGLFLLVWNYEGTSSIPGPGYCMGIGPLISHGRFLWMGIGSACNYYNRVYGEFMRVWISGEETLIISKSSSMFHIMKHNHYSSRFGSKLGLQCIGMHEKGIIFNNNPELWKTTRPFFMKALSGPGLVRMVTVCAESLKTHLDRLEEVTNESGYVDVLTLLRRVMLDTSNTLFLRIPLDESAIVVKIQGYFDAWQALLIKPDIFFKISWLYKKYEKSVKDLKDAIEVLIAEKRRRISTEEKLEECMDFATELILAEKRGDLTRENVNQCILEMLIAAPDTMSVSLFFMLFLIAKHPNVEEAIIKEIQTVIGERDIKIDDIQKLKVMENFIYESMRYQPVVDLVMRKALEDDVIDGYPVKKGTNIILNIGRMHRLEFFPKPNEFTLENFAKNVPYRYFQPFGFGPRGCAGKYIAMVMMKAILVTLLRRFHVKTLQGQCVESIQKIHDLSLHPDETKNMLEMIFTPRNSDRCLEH
Procedure: The in vitro tests on Aromatase were performed by using the Kit Cat# K984-100 assay kit; the Regeneration System, 100× and NADP^+: (100×), 10 mM were used as reaction buffer. In particular, the enzyme was first prepared with the Regeneration System and substrate with NADP^+ in freshly prepared reaction buffer. Then, the resulting solution was delivered into the reaction well.

## N#Cc1ccc(C(c2ccc(C#N)cc2)n2cncn2)cc1 [letrozole]
[1]
  IC50: 1420 nM
[2]
  IC50: 2620 nM
MCF-7 cells; Homo sapiens, MCF7, 24 h, MCF-7, 24 h
  IC50: 764 ± 114 nM
MCF-7 cells; Homo sapiens, MCF7, 48 h, MCF-7, 48 h
  IC50: 599 ± 333 nM
MCF-7 cells; Homo sapiens, MCF7, 72 h, MCF-7, 72 h
  IC50: 121 ± 30 nM
MCF-7 cells; MCF-7, 72 h
  IC50: 120 ± 30 nM

## OCc1cnc(S)n1Cc1ccc(Cl)cc1Cl [X1]
CYP19A1 (Aromatase)
  inhibition of CYP19A1: no inhibition

## O=[N+]([O-])c1cc(C(F)(F)F)ccc1Sc1ncc(CO)n1Cc1ccccc1 [X12, (1-Benzyl-2-((2-nitro-4-(trifluoromethyl)phenyl)thio)-1H-imidazol-5-yl)methanol]
other
  melting point: 225.4 to 226.9 °C
